Measurements published in US7807162B2, “Single domain VHH antibodies against von Willebrand factor” (Ablynx N.V., priority 2005, dated 2010).
Several values for one entry are separate records, joined by “and”; a condition that tells them apart may be missing. Identical values can stand only once.

What was measured:
ADAMTS-13 = test: Cleavage of recombinant A1-A2-A3 vWF fragment by ADAMTS-13 (Western Blot); type: biochemical, human; details: control; EDTA in NPP
Method: In a second type of experiment, different reaction mixtures were prepared as summarized in table 60, however, without the addition of the A1A2A3 construct. The A1A2A3 construct is a recombinant fragment consisting out of the A1, A2 and A3 domain of vWF. Mixtures were pre-incubated for 5 minutes at 37° C. after which the A1A2A3 fragment is added and the mixture is incubated in a waterbath overnight at 37° C. […] The blot was blocked for 2 hours at room temperature with blockbuffer (1:1 Odyssey blockbuffer in 1×TBS pH=7.4) and incubated with Rabbit polyclonal anti-vWF (DAKO). Alexa Fluor 680 goat anti-rabbit was used for detection. Scanning was done on the ODYSSEY to detect the degradation products.
In a second assay, a recombinant fragment containing the A1-A2-A3 domain of vWF was mixed with normal pool plasma (NPP) containing ADAMTS-13, resulting in proteolytic cleavage of the fragment which was observed by a Western Blot analysis.

[1] = tested on: cyclic flow reductions (CFRs) in injured, stenosed femoral artery; test: Folts thrombosis model in baboons: length/inhibition of cyclic flow reductions (CFRs); type: in vivo, baboon (Papio ursinus)
Method: The study protocol that was applied is the original Folts model and some modifications described below (Folts J D, et al, Circulation. 1976; 54:365-370). Healthy male or female baboons (Papio ursinus) were used. The animals were 8-17 kg of weight and were disease-free for at least 2 weeks prior to use. The baboons were fed with dry standard food only. The baboons were used at different time points. […] Animals were anaesthetized and body temperature is maintained at 37° C. with a heating table. A segment of a femoral artery was dissected free from surrounding tissue. A shunt was placed between the femoral vein and femoral artery to obtain high shear rates. The mean and phasic blood flow was recorded continuously throughout the experiment. Baseline flow was recorded for 20 minutes. […] A clamp was placed over the injured site to create an external stenosis. A gradual decline in blood flow due to platelet adhesion and aggregation was observed. When flow was reduced to zero, blood flow was restored by opening the clamp to dislodge the platelet-rich thrombus. This repetitive pattern of decreasing blood flow following mechanical restoration is referred to as cyclic flow reductions (CFRs). Additional endothelial injury was repeated if needed to finally obtain stable CFRs in these baboons. The number of times the thrombus needed to be dislodged determines the number of CFRs. FIG. 24 illustrates blood flow pattern during the Folts model in baboons. […] This procedure was repeated for several times with escalating doses of the test substance. The anti-thrombotic effect was quantified by comparing the length of CFRs before and after drug administration. When full inhibition of CFRs was observed, a new injury was applied in order to confirm that the inhibition was an effect of the treatment but not of a natural healing phenomenon.

[2] = PT during the Folts model; type: in vivo, baboon (Papio ursinus); details: 240 IU/kg dose
[3] = parameters: species or system baboon (Papio ursinus); details: in vivo
Method: The aPTT values observed during the Folts model studies are summarized. […] In these animals, aPTT values are prolonged from the 30-60 IU/kg dose on, as is also observed in patients. Heparin acts as an anticoagulant by forming a complex with antithrombin and catalyzing the inhibition of activated blood coagulation factors such as XIa, IXa, Xa and thrombin (factor IIa). These factors are all involved in the intrinsic coagulation cascade of which its functionality is measured in the aPTT test.

[4] = number of experiments with inhibition / total number of independent repeats

Row | effect on the PT time [2] | dose from which aPTT values are prolonged [3] | Compound | effect on the cleavage of the A1-A2-A3 vWF fragment by ADAMTS-13 (ADAMTS-13) | Length of CFRs ([1]; Heparin final dose 15 IU/kg, individual baboons 6, 7, 8) | Length of CFRs ([1]; Heparin final dose 30 IU/kg, individual baboons 6, 7, 8) | Length of CFRs ([1]; Heparin final dose 60 IU/kg, individual baboons 6, 7, 8) | Length of CFRs ([1]; Heparin final dose 120 IU/kg, individual baboons 6, 7, 8) | Length of CFRs ([1]; Heparin final dose 240 IU/kg, individual baboons 6, 7, 8) | Length of CFRs ([1]; Heparin-treated, after Epinephrin, baboons 6, 7) | dose at which full inhibition of CFRs was obtained ([1]; baboon 6, first dose) [IU/kg] | CFRs upon a new injury ([1]; baboon 6, highest dose of 240 IU/kg) | Inhibition of CFRs ([1]; baboons 7 and 8, doses as high as 240 IU/kg) | CFRs upon a new injury ([1]; new injury applied at full inhibition of CFRs) | Inhibition of CFRs [1, 4] | Inhibition of CFRs after administration of Epinephrin [1, 4] | Inhibition of CFRs after new injury [1, 4]
1 |  |  | O=C(O)CN(CCN(CC(=O)O)CC(=O)O)CC(=O)O [EDTA] | inhibition of cleavage of the fragment |  |  |  |  |  |  |  |  |  |  |  |  | 
2 | minor increase in PT | 30-60 IU/kg | Heparin |  | 630 s and 208 s and 255 s | 355 s and 241 s and 320 s | 432 s and 246 s and 332 s | 610 s and 160 s and 206 s | >1800 s and 221 s and 169 s | 109 s and 65 s | 15 | CFRs were inhibited even after a new injury | no inhibition of the CFRs could be obtained | the CFRs returned each time | 1/3 | 0/2 | 1/3
